A word on the Tmax: it is the time from dosing to the highest level.

Data set [1] in a line: Open-label absolute bioavailability and pharmacokinetic study of intranasal ketamine in healthy volunteers. The class given is in vivo, human. As to conditions: hydro-alcoholic composition, minimum-maximum. As for the experimental part: This was an open-label study in 25 healthy volunteers. Subjects received single doses of ketamine by intravenous (IV) injection (20 mg), intramuscular (IM) injection (20 mg), or intranasal (IN) administration (20 mg, 40 mg and 80 mg).
Blood samples for the measurement of plasma concentrations of (R)- and (S)-ketamine and (R)- and (S)-norketamine were collected pre-dose and at 0.033, 0.083, 0.167, 0.25, 0.333, 0.5, 0.75, 1, 1.25, 2, 2.5, 3, 4, 6, 8, 12, 16, and 24 hours post-dose for each study period.
All estimates for the parent and metabolite were consistent within each formulation or dose for the racemate, (R)-, and (S)-enantiomers. After IN administration, the estimates were slightly higher for the metabolite than the parent.

The conditions of data set [2]: acidic pH near 4.5. The source says:
A Buffer may be used to control the pH of the nasal spray solution at, or near 4.5. […] Also, the local pH value inside the nasal cavity directly influences the rate and extent of drug absorption. […] Additionally, maintaining pH at or above 4.0 helps to reduce local nasal tract irritation. The buffer is optional.

Structures are written as SMILES.

Take `CN[C@@]1(c2ccccc2Cl)CCCCC1=O` [(R)-Ketamine]: in data set [1] (dose 10 mg), the “AUC(0-1 hr)” value is reported as 15.9-70.8 hr′ ng/mL and the “AUC(0-4 hr)” value is 33.6-118 hr′ ng/mL. In data set [1] (dose 20 mg), the “AUC(0-1 hr)” value was 40.5-129 hr′ ng/mL and the “AUC(0-4 hr)” value is on record as 93.0-251 hr′ ng/mL.

Regarding `CNC1(c2ccccc2Cl)CCCCC1=O` (racemic) [(RS)-Ketamine, 2-(2-chlorophenyl)-2-(methylamino)-cyclohexanone], in data set [1] (dose 20 mg), the “AUC(0-1 hr)” value is on record as 28.7-127 hr′ ng/mL, the “AUC(0-4 hr)” value was 60.0-209 hr′ ng/mL and the Tmax is 4.98 to 30 min. For the same molecule, in data set [1] (dose 40 mg), the “AUC(0-1 hr)” value is listed as 71.4-225 hr′ ng/mL, the “AUC(0-4 hr)” value is listed as 160-433 hr′ ng/mL and the time to peak (Tmax) was in the range of 10 to 30 min.

Consider `CNC1(c2ccccc2Cl)CCCCC1=O.Cl` (centres unmarked) [Es/ketamine HCl], for which, in data set [2], the stability of solutions entry is “better stability”.

As to `CN[C@]1(c2ccccc2Cl)CCCCC1=O` [(S)-Ketamine], in data set [1] (dose 10 mg), the “AUC(0-1 hr)” value is reported as 12.8-55.8 hr′ ng/mL, the “AUC(0-4 hr)” value is 26.4-90.4 hr′ ng/mL and the Tmax fell in the range of 5 to 20 min. Moreover, in data set [1] (dose 20 mg), the “AUC(0-1 hr)” value is recorded as 30.9-96.7 hr′ ng/mL, the “AUC(0-4 hr)” value was 66.9-181 hr′ ng/mL and the Tmax lay within 10 to 30 min.

These data come from patent US20260130845A1, “KETAMINE NASAL SPRAY FORMULATION AND METHODS OF USE” (INESKET LLC, priority 2024, published 2026).
